Data from US8178506B2, “Oligomeric compounds and compositions for use in modulation of small non-coding RNAs” (Regulus Therapeutics Inc., priority 2003, dated 2012).
In the oligonucleotide strings, read from the 5' end, every base follows the letter of its sugar. An asterisk marks phosphorothioate; unmarked linkages are phosphodiester. Other units and linkages are bracketed, terminal groups are in braces. A string of capitals states the bases alone. e = 2'-O-(2-methoxyethyl) (MOE); [5mC] = 5-methylcytosine; d = 2'-deoxy (DNA)

Tests used:
IGFBP-1 = IGFBP-1 mRNA expression in HepG2 cells; format: cell-based, human; details: for IGFBP1 mRNA: Experiment 1, basal (no insulin), four hours, UTC = 100
Protocol: (§1) Approximately 28 hours after transfection, the cells are subjected to serum starvation for a period of 12 to 16 hours, using serum-free growth medium. Following serum starvation, cells are treated with 1 nM insulin (insulin-treated) or are left untreated (basal conditions) for approximately four hours. At the same time, untreated control cells in both plates are treated with 100 nM insulin to determine the maximal insulin response. Following insulin treatment (forty-eight hours after transfection), total RNA is harvested from all samples, and the amount of total RNA from each sample is determined using a Ribogreen assay (Invitrogen Corporation, Carlsbad, Calif.). Real-time PCR is performed on the total RNA samples using primer/probe sets for three insulin responsive genes: insulin-like growth factor binding protein-1 (IGFBP-1), cytosolic PEPCK (PEPCK-C), and follistatin. Gene expression levels obtained by real-time PCR are normalized for total RNA content in the samples.
(§2) Oligomeric compounds of the present invention were tested for their effects on insulin signaling in HepG2 cells. HepG2 cells were plated at 7500 cells/well in collagen coated 96-well plates. The following day, cells were transfected with oligomeric compounds targeting miRNAs using 100 nM oligomeric compound in LIPOFECTIN™ (Invitrogen Corporation, Carlsbad, Calif.) in two 96-well plates. The oligomeric compounds were tested in triplicate on each 96-well plate, except for positive and negative controls, which were measured up to six times per plate. At the end of transfection, the transfection medium was replaced by regular growth medium. Twenty-eight hours post-transfection, the cells were subjected to overnight (sixteen to eighteen hours) serum starvation using serum free growth medium. Forty-four hours post-transfection, the cells in the transfected wells were treated with either no insulin (“basal” Experiment 1, for identification of insulin-mimetic compounds) or with 1 nM insulin (“insulin treated” Experiment 2, for identification of insulin sensitizers) for four hours. At the same time, in both plates, cells in some of the un-transfected control wells are treated with 100 nM insulin to determine maximal insulin response. At the end of the insulin or no-insulin treatment (forty-eight hours post-transfection), total RNA is isolated from both the basal and insulin treated (1 nM) 96-well plates, and the amount of total RNA from each sample is determined using a Ribogreen assay (Molecular Probes, Eugene, Oreg.). Real-time PCR is performed on all the total RNA samples using primer/probe sets for three insulin responsive genes: PEPCK-c, IGFBP-1 and follistatin. Expression levels for each gene are normalized to total RNA, and values+standard deviation are expressed relative to the transfectant only untreated control (UTC) and negative control compounds.
(§3) Protocols for treatment of HepG2 cells and transfection of oligomeric compounds are as described in Example 18. Also as described in Example 18, forty-four hours post-transfection, the cells in the transfected wells were treated with either no insulin (“basal” Experiment 3 (below), for identification of insulin-mimetic compounds) or with 1 nM insulin (“insulin treated” Experiment 4 (below), for identification of insulin sensitizers) for four hours. At the same time, in both plates, cells in some of the un-transfected control wells are treated with 100 nM insulin to determine maximal insulin response. At the end of the insulin or no-insulin treatment (forty-eight hours post-transfection), total RNA is isolated from both the basal and insulin treated (1 nM) 96-well plates, and the amount of total RNA from each sample is determined using a Ribogreen assay (Molecular Probes, Eugene, Oreg.).

follistatin = assay: Follistatin mRNA expression in HepG2 cells; format: cell-based, human; details: for Follistatin mRNA: Experiment 1, basal (no insulin), four hours, UTC = 100
Protocol: as §1, §2, §3

PEPCK-c = PEPCK-c mRNA expression in HepG2 cells; format: cell-based, human; details: for PEPCKc mRNA: Experiment 1, basal (no insulin), four hours, UTC = 100; for reduction of PEPCK-c mRNA expression: HepG2, 1 nM insulin; for reduction of PEPCK-c mRNA expression / decrease in PEPCK-c mRNA: 100 nM; for decrease in PEPCK-c mRNA: HepG2, basal (no insulin)
Protocol: as §1, §2, §3

PPARγ = PPARγ mRNA expression in adipocytes (real-time PCR); format: cell-based, human; details: differentiating adipocytes transfected with oligomeric compound; Table 75
aP2 = aP2 mRNA expression in adipocytes (real-time PCR); format: cell-based, human; details: differentiating adipocytes transfected with oligomeric compound; Table 75
Glut4 = Glut4 mRNA expression in adipocytes (real-time PCR); format: cell-based, human; details: differentiating adipocytes transfected with oligomeric compound; Table 75
adipocytes = assay: Triglyceride accumulation assay in adipocytes; format: cell-based, human; details: differentiating adipocytes transfected with oligomeric compound; Table 75
HSL = HSL mRNA expression in adipocytes (real-time PCR); format: cell-based, human; details: differentiating adipocytes transfected with oligomeric compound; Table 75
[1] = tested on: BJ, B16-F10, T47D, T47Dp53 and HeLa cells; assay: Cell cycle assay (propidium iodide flow cytometry), cell line panel; format: cell-based; details: 150 nM, 72 hours (Table 29)
[2] = Experiment 2, insulin treated: HepG2 cells transfected with oligomeric compound, 1 nM insulin for four hours, UTC + 1 nM insulin = 100
[3] = Experiment 3, basal (no insulin), HepG2 cells, 48 hours post-transfection
[4] = Experiment 4, insulin-sensitization: HepG2 cells treated with 1 nM insulin for four hours, 48 h post-transfection, mRNA by real-time PCR

Substance: 328776 (antisense eT*e[5mC]*e[5mC]*eT*eG*dT*dA*dA*dT*dT*dA*dT*dA*dG*dG*e[5mC]*eT*eA*eG*e[5mC]) [compound 328776]
- IGFBP1 mRNA expression (IGFBP-1; [2]): 86
- Follistatin mRNA expression (follistatin; [2]): 114
- PEPCKc mRNA expression (PEPCK-c; [2]): 125

Substance: 328779 (antisense eT*eG*eT*eT*eT*dG*dT*d[5mC]*dT*d[5mC]*d[5mC]*dA*dA*dG*dA*eA*eA*e[5mC]*eG*eT) [compound 328779]
- IGFBP-1 (% UTC) (IGFBP-1; [3]): 135 % UTC
- IGFBP-1 (% UTC) (IGFBP-1; [4]): 128 % UTC
- Follistatin (% UTC) (follistatin; [3]): 109 % UTC
- Follistatin (% UTC) (follistatin; [4]): 119 % UTC
- PEPCK-c (% UTC) (PEPCK-c; [3]): 123 % UTC
- PEPCK-c (% UTC) (PEPCK-c; [4]): 78 % UTC

Substance: 340362 (antisense GACTGTTGAATCTCATGGCA; 5-10-5 gapmer, wing sugar and linkages not given here, further chemistry not given here) [compound 340362]
- IGFBP-1 (% UTC) (IGFBP-1; [3]): 157 % UTC
- IGFBP-1 (% UTC) (IGFBP-1; [4]): 129 % UTC
- Follistatin (% UTC) (follistatin; [3]): 123 % UTC
- Follistatin (% UTC) (follistatin; [4]): 119 % UTC
- PEPCK-c (% UTC) (PEPCK-c; [3]): 168 % UTC
- PEPCK-c (% UTC) (PEPCK-c; [4]): 104 % UTC

Substance: 341801 (antisense CCUAUCUCCCCUCUGGACC; all 2'-MOE, all phosphorothioate, methylation of C and T or U not given here) [compound 341801]
- PPAR gamma mRNA (PPARγ): 82 percentage of untreated control (UTC)
- IGFBP1 mRNA (IGFBP-1; HepG2 cells): 99
- aP2 mRNA (aP2): 90 percentage of untreated control (UTC)
- GLUT4 mRNA (Glut4): 77 percentage of untreated control (UTC)
- TG (triglyceride accumulation) (adipocytes): 65 percentage of untreated control (UTC)
- HSL mRNA (HSL): 89 percentage of untreated control (UTC)
- Follistatin mRNA (follistatin; HepG2 cells): 85
- PEPCKc mRNA (PEPCK-c; HepG2 cells): 73

Substance: 341808 (antisense GAACUGCCUUUCUCUCCA; all 2'-MOE, all phosphorothioate, methylation of C and T or U not given here) [compound 341808]
- IGFBP1 mRNA (IGFBP-1; HepG2 cells): 113
- Follistatin mRNA (follistatin; HepG2 cells): 96
- PEPCKc mRNA (PEPCK-c; HepG2 cells): 64

Substance: 341813 (antisense AGACACGTGCACTGTAGA; all 2'-MOE, all phosphorothioate, methylation of C not given here) [compound 341813]
- IGFBP-1 (% UTC) (IGFBP-1; [3]): 137 % UTC
- IGFBP-1 (% UTC) (IGFBP-1; [4]): 117 % UTC
- Follistatin (% UTC) (follistatin; [3]): 100 % UTC
- Follistatin (% UTC) (follistatin; [4]): 102 % UTC
- PEPCK-c (% UTC) (PEPCK-c; [3]): 121 % UTC
- PEPCK-c (% UTC) (PEPCK-c; [4]): 88 % UTC

Substance: AGAAGGTGGGGAGCAGCGTCA (anti-miR; chemistry not fully specified) [ISIS 328115, uniform 2′-MOE PS; targets hypothetical miRNA-142]
- reduction of PEPCK-c mRNA expression (PEPCK-c): 41%

Substance: GCTACCTGCACTGTAAGCACTTTT (chemistry not given here) [ISIS 327911, uniform 2′-MOE PS; targets mir-106]
- percentage of cells in the G2/M phase [1]: increased percentage of cells in the G2/M phase
- decrease in PEPCK-c mRNA (PEPCK-c): 48%

Substance: ISIS 341804: SEQ ID NO: 761, targeting mir-94/mir-106b (antisense ATCTGCACTGTCAGCACTTT; all 2'-MOE, all phosphorothioate, methylation of C not given here)
- decrease in PEPCK-c mRNA (PEPCK-c): 56%

Substance: ISIS 341805: SEQ ID NO: 762, targeting mir-184 (antisense ACCCTTATCAGTTCTCCGTCCA; all 2'-MOE, all phosphorothioate, methylation of C not given here)
- decrease in PEPCK-c mRNA (PEPCK-c): 60%

Substance: TCAGTTTTGCATGGATTTGCACA (anti-miR; chemistry not fully specified) [ISIS 327922, uniform 2′-MOE PS; targets mir-19b-2]
- reduction of PEPCK-c mRNA expression (PEPCK-c): 24%
- decrease in PEPCK-c mRNA (PEPCK-c): 23%
